Measured values: patent publication US20120328631A1, “EP1 INHIBITION” (UNIVERSITY OF ROCHESTER, priority 2010, published 2012)

Tests used:
Assay type in all cases: cell-based, mouse
[1] = tested on: fibronectin; experiment: Fibronectin expression in bone marrow cells (Western blotting, real-time PCR)
Experimental: Bone marrow cells were collected from 10-week-old EP1^−/− and wild-type mice and treated with 3 μM PGE2 for 24 hours before harvest. Total protein was extracted from the cultured cells at day 17 and RNA was extracted at days 10, 12, 14, 17 and 21 after culture. Western blotting (FIG. 10A) and real-time PCR (FIG. 10B) were performed to examine the expression levels of fibronectin. […] Statistical comparisons were performed using 2-way ANOVA followed by Dunnett's test. a=P<0.05 vs. wild-type, b=P<0.05 vs. control, c=P<0.05 vs. PGE2.
(§1) Relative RNA levels of EP1 and fibronectin were determined by real-time PCR (FIGS. 11A and 11B). Immunohistochemistry was performed using mouse fibronectin primary antibody on the femur fracture tissue samples collected from 10-week-old EP1^−/− and wild-type mice at 3 and 7 days post-fracture (FIG. 11C). Statistical comparisons were performed using 2-way ANOVA followed by Student's t-test. a=P<0.05 vs. wild-type, b=P<0.05 vs. control, c=P<0.05 vs. PGE2.
(§2) Mice were sacrificed post fracture at 3, 7, 10, 14, 21 and 28 days (N=4). Fracture callus tissue samples were carefully dissected from soft tissue and homogenized using the TissueLyzer (Qiagen; Valencia, Calif.). Total RNA was then extracted from homogenized samples by the RNeasy Fibrous Tissue Midi Kit (Qiagen) according to the manufacturer's instructions. One microgram aliquots of RNA were reverse transcribed into cDNA using the iScript cDNA Synthesis Kit (Bio-Rad; Hercules, Calif.). Real-time […] was performed using the Rotor Gene 6000 real-time DNA amplification system (Qiagen) according to the manufacturer's instruction. […]
Bone marrow cells were washed with cold phosphate-buffered saline (PBS) three times and lysed on ice in Golden Lysis Buffer (GLB) for 30 minutes as previously described (Li et al., Exp. Cell Res. 300:159-69 (2004)). […] The immune complexes were detected using NBT/BCIP substrate (Pierce Biotechnology).

[2] = tested on: EP1 mRNA; experiment: siRNA knock down of EP1 expression in primary bone marrow stromal cells (real-time PCR); details: primary bone marrow stromal cells transfected with EP1 siRNA
Experimental: as §1, §2
To further confirm regulation of fibronectin by the PGE2-EP1 signaling pathway, siRNA as described above was used to knock down EP1 expression in primary bone marrow stromal cells. […] Fibronectin expression levels were examined by quantitative real-time PCR.

[3] = tested on: osteocalcin; experiment: Osteocalcin expression by real-time PCR in bone marrow cell cultures; details: cultures treated with SC19220 and PGE2, RNA
Experimental: (§3) An EP1 expression vector was transfected into the EP1^−/− bone marrow cells by electroporation. […] Bone marrow progenitor cells at day 12 after culture were treated with SC19220 (10 μm) for 30 minutes followed by treatment with PGE2 (3 μm). After 24 hours, cells were stained with Alizarin red (FIGS. 12C and 12D). RNA extracted from the cultures was examined for osteocalcin expression (FIG. 12E). Statistical comparisons were performed using Student's t-test. a=P<0.05 vs. control, b=P<0.05 vs. PGE2.
Bone marrow cells were isolated from 10-week-old EP1^−/− and C57BL/6J mice. Cells were cultured in 2 ml α-MEM containing 10% FBS at 5×10^6 cells/well in 6-well plates. After being cultured for 7 days, the medium was replaced with media containing beta-glycerophosphate and ascorbic acid, and the media was changed every two days thereafter. Cells were harvested on day 10, 12, 14, 17 and 21 after plating for alkaline phosphatase and alizarin red staining, and mRNA analysis by quantitative real-time PCR. Cell proliferation was examined using the Cell Proliferation ELISA BrdU (colorimetric) immunoassay kit (Roche; Indianapolis, Ind.) according to the manufacturer's instructions. Cell viability was examined using the CellTiter-Blue Cell Viability Assay (Promega; Madison, Wis.) according to the manufacturer's instructions. […]

[4] = tested on: primary bone marrow stromal cells; experiment: Bone nodule formation / mineralization (Alizarin red staining) in bone marrow cell cultures
Experimental: as §3
Increasing concentrations of fibronectin were added to bone marrow cell cultures at day 12. 24 hours later, cells were stained with Alizarin Red (FIGS. 13A and 138) or harvested for real-time PCR (FIG. 13B). Statistical comparisons were performed using Student's t-test, a=P<0.05 vs. control.
(§4) Bone marrow cells were isolated from 10-week-old EP1^−/− and C57BL/6J mice. Cells were cultured in 2 ml α-MEM containing 10% FBS at 5×10^6 cells/well in 6-well plates. After being cultured for 7 days, the medium was replaced with media containing beta-glycerophosphate and ascorbic acid, and the media was changed every two days thereafter. Cells were harvested on day 10, 12, 14, 17 and 21 after plating for alkaline phosphatase and alizarin red staining, and mRNA analysis by quantitative real-time PCR. Cell proliferation was examined using the Cell Proliferation ELISA BrdU (colorimetric) immunoassay kit (Roche; Indianapolis, Ind.) according to the manufacturer's instructions. Cell viability was examined using the CellTiter-Blue Cell Viability Assay (Promega; Madison, Wis.) according to the manufacturer's instructions. Intracellular cAMP activity in bone marrow cells was examined using the cAMP-Glo Assay (Promega) according to the manufacturer's instructions.

[5] = tested on: EP2 and EP4 receptors; experiment: cAMP-Glo Assay in bone marrow cell cultures; design: dose or concentration left out as unconfirmed; details: bone marrow cell cultures from wild type and EP1−/− mice
Experimental: Bone marrow cells were isolated from 10-week-old EP1^−/− mice and wild-type mice. After culturing for 7 days, cells were treated with PGE2 ([…]) or vehicle for 24 hours. […] The representative photomicrographs are shown at 200× original magnification. Statistical comparisons were performed using Student's T-test. “a” indicates p<0.05 compared to wild-type, “b” indicates p<0.05 compared to EP1^−/−. β-actin served as the loading control.
as §4

EP1 siRNA: siRNA used to knock down EP1 expression; example sequences SEQ ID NO:21 and SEQ ID NO:22 (chain 1 AGCUUGUCGGUAUCAUGGUTT; chain 2 ACUUCUAAGCACACCAGATT; chemistry not given here)
PGE2-stimulated fibronectin expression ([1]; cells transfected with EP1 siRNA vs control siRNA, quantitative real-time PCR): inhibited | decrease of EP1 mRNA [2]: about 40%

CC(=O)NNC(=O)N1Cc2ccccc2Oc2ccc(Cl)cc21 [SC19220, 8-chloro-dibenz[b,f][1,4]oxazepine-10(11H)-carboxy-(2-acetyl)hydrazide]
expression level of osteocalcin [3]: increased | bone nodule formation ([4]; primary bone marrow cell cultures at day 12, SC19220 (10 μm) for 30 minutes, then PGE2 (3 μm), 24 hours, Alizarin red): accelerated bone nodule formation | time in culture at which bone nodule formation was induced ([4]; wild-type cells, 12 day cultures treated with antagonist and PGE2 for 24 hours, untreated cultures typically form nodules following 14 days): ≤ 13 days

CCCCC[C@H](O)/C=C/[C@H]1[C@H](O)CC(=O)[C@@H]1C/C=C\CCCC(=O)O [PGE2]
levels of cAMP [5]: similarly enhanced | fibronectin expression ([1]; cells with control siRNA, quantitative real-time PCR): stimulate fibronectin expression | expression of fibronectin (protein and mRNA) ([1]; wild-type bone marrow cells compared with EP1−/− cells, 3 μM PGE2 for 24 hours): dramatically increased

fibronectin
bone nodule formation ([4]; wild-type bone marrow cells, 5 μg/ml fibronectin added at day 12, 24 hours, alizarin red): did not alter bone nodule formation | mineralization ([4]; wild-type bone marrow cells, 12.5 μg/ml fibronectin added at day 12, 24 hours, alizarin red): significantly reduced mineralization | mineralization ([4]; wild-type bone marrow cells, 25 μg/ml fibronectin added at day 12, 24 hours, alizarin red): significantly reduced mineralization
